According to patent US10849893B2 (Athenex HK Innovative Limited, priority 2018, dated 2020):
Values joined by “and” are separate entries in the source; they are usually repeats but may differ in a detail not shown here. Identical values can stand only once. Like-named read-outs stand apart in the source and are kept apart here.

Assays:
[1] = oral 225 mg/m^2 with Compound A; individual subjects
Experimental: (§1) A 2-part study was conducted in subjects with solid tumors (“Study 2”). […] The dose levels increased to 75 mg/m^2, 150 mg/m^2, 225 mg/m^2, 300 mg/m^2, 375 mg/m^2, and 400 mg/m^2. In the second part of this study, half of the group starting at a selected dose from stage 1, was given over two consecutive days every three weeks. A total of 15 (n=40) subjects enrolled in this study.
(§2) All subject PK data within the dataset were analyzed using Phoenix 8.0. […] Individual time points for the terminal slope were automatically selected by the software, and linear up—log down interpolation calculation method was used for the analysis. Individual BLQ samples were set to 0.00 ng/ml for noncompartmental analysis unless the PK sample occurred between two PK samples above the limit of quantification, in which case the PK sample was set to missing. For the calculation of summary statistics and mean concentration figures, all BLQ samples were set to 0.00 ng/ml.

[2] = design: Dose Normalized AUC: unit not given beside the values; details: cited from earlier work
[3] = 75 mg/m^2 over 28 days, monotherapy schedule for mHRPC; cited from earlier work
clinical = details: human, po
Experimental: as §1, §2

[4] = IV 20 mg/m^2, infusion 1 h, n = 1
[5] = IV 20 mg/m^2, infusion 24 h, n = 1
[6] = IV 30 mg/m^2, infusion 1.58 (0.80) h, n = 2
[7] = IV 40 mg/m^2, infusion 1 h, n = 1
[8] = IV 40 mg/m^2, infusion 24 h, n = 3
[9] = IV 55 mg/m^2, infusion 1.68 (0.75) h, n = 3
[10] = IV 55 mg/m^2, infusion 24 h, n = 4
[11] = IV 70 mg/m^2, infusion 1.37 (0.53) h, n = 2
[12] = IV 70 mg/m^2, infusion 24 h, n = 3
[13] = IV 85 mg/m^2, infusion 1.61 (0.81) h, n = 6
[14] = IV 90 mg/m^2, infusion 24 h, n = 5
[15] = IV 100 mg/m^2, infusion 2.03 (0.09) h, n = 4
[16] = IV 115 mg/m^2, infusion 1.84 (0.28) h, n = 4
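Wherever AUC % Extrapobs is given: noncompartmental pharmacokinetic analysis in subjects with solid tumors, using linear-up log-down interpolation, with terminal slope time points picked automatically by the software.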
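Wherever AUCINF—obs is given: noncompartmental pharmacokinetic analysis in subjects with solid tumors, using linear-up log-down interpolation, with terminal slope time points picked automatically by the software.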
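Wherever Tmax is given: noncompartmental pharmacokinetic analysis in subjects with solid tumors, using linear-up log-down interpolation, with terminal slope time points picked automatically by the software.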

Compound: CC(=O)O[C@@]12CO[C@@H]1C[C@H](O)[C@@]1(C)C(=O)[C@H](O)C3=C(C)[C@@H](OC(=O)[C@H](O)[C@@H](NC(=O)OC(C)(C)C)c4ccccc4)C[C@@](O)([C@@H](OC(=O)c4ccccc4)[C@H]21)C3(C)C [docetaxel, (2aR,4S,4aS,6R,9S,11S,12S,12aR,12b S)-12b-acetoxy-9-(((2R,3S)-3-((tert-butoxycarbonyl)amino)-2-hydroxy-3-phenylpropanoyl)oxy)-4,6,11-trihydroxy-4a,8,13,13-tetramethyl-5-oxo-2a,3,4,4a,5,6,9,10,11,12,12a, 12b-dodecahydro-1H-7,11-methanocyclodeca[3,4]benzo[1,2-b]oxet-12-yl benzoate]
- AUC % Extrapobs [1]: 6.48% and 3.06% and 5.26%
- AUCINF—obs [1]: 1390 ng·h/mL and 517 ng·h/mL and 1650 ng·h/mL
- Cmax [1]: 139 ng/mL and 84.7 ng/mL
- Tmax [1]: 2.00 h
- t1/2 [1]: 46.1 h
- AUC0-24 [2, 4]: 960 ng·h/mL
- Dose Normalized AUC [2, 4]: 48
- t1/2 γ [2, 4]: 2.2 h
- AUC0-24 [2, 5]: 920 ng·h/mL
- Dose Normalized AUC [2, 5]: 46
- AUC0-24 [2, 6]: 1260 ng·h/mL
- Cmax [2, 6]: 640 (450) ng/ml
- Dose Normalized AUC [2, 6]: 42
- t1/2 γ [2, 6]: 4.6 h
- AUC0-24 [2, 7]: 670 ng·h/mL
- Cmax [2, 7]: 420 ng/mL
- Dose Normalized AUC [2, 7]: 16.75
- t1/2 γ [2, 7]: 3.8 h
- AUC0-24 [2, 8]: 2190 ng·h/mL
- Dose Normalized AUC [2, 8]: 54.75
- AUC0-24 [2, 9]: 1420 ng·h/mL
- Cmax [2, 9]: 820 (380) ng/ml
- Dose Normalized AUC [2, 9]: 25.82
- t1/2 γ [2, 9]: 2 h
- AUC0-24 [2, 10]: 2560 ng·h/mL
- Dose Normalized AUC [2, 10]: 46.55
- AUC0-24 [2, 11]: 2790 ng·h/mL
- Cmax [2, 11]: 1910 (320) ng/ml
- Dose Normalized AUC [2, 11]: 39.86
- t1/2 γ [2, 11]: 2.5 h
- AUC0-24 [2, 12]: 3470 ng·h/mL
- Dose Normalized AUC [2, 12]: 49.57
- AUC0-24 [2, 13]: 4100 ng·h/mL
- Cmax [2, 13]: 2420 (920) ng/ml
- Dose Normalized AUC [2, 13]: 48.24
- t1/2 γ [2, 13]: 13.6 h
- AUC0-24 [2, 14]: 7810 ng·h/mL
- Dose Normalized AUC [2, 14]: 86.78
- AUC0-24 [2, 15]: 5930 ng·h/mL
- Cmax [2, 15]: 2410 (250) ng/ml
- Dose Normalized AUC [2, 15]: 59.30
- t1/2 γ [2, 15]: 18.5 h
- AUC0-24 [2, 16]: 5190 ng·h/mL
- Cmax [2, 16]: 2680 (930) ng/ml
- Dose Normalized AUC [2, 16]: 45.13
- t1/2 γ [2, 16]: 9.6 h
- target AUC [3]: 3410 ± 980 ng·h/mL
- AUC(0-inf) (clinical; in vivo, 35 mg/m2): 308 ng·h/mL
- half-life (clinical; in vivo, 150 mg/m2): 53.2 h
- Cmax (clinical; in vivo, 150 mg/m2, Cmax, oral 150 mg/m^2 with Compound A, individual subjects): 125 ng/mL
- half-life (clinical; in vivo, 225 mg/m2): 54.4 h
- Cmax (clinical; in vivo, 225 mg/m2, Cmax, oral 225 mg/m^2 with Compound A, individual subjects): 118 ng/mL
- AUC(0-t) (clinical; plasma, 35 mg/m2, AUC0-12, oral 35 mg/m^2 with Compound A, Mean, N=4): 184 ng·h/mL
- AUC(0-t) (clinical; plasma, 35 mg/m2, AUC0-24, oral 35 mg/m^2 with Compound A, Mean, N=4): 211 ng·h/mL
- AUC(0-t) (clinical; plasma, 35 mg/m2, AUC0-48, oral 35 mg/m^2 with Compound A, Mean, N=4): 240 ng·h/mL
- AUC(0-inf) (clinical; plasma, 35 mg/m2, AUCINF—obs, oral 35 mg/m^2 with Compound A, Mean, N=4): 296 ng·h/mL
- Cmax (clinical; plasma, 35 mg/m2, Cmax, oral 35 mg/m^2 with Compound A, Mean, N=4): 69.1 ng/mL
- Cmax (clinical; plasma, 35 mg/m2, Cmax, oral 35 mg/m^2 with Compound A, individual subjects): 38 to 157 ng/mL
- half-life (clinical; plasma, 35 mg/m2, t1/2, oral 35 mg/m^2 with Compound A, Mean, N=4): 27.6 h
- half-life (clinical; plasma, 35 mg/m2, t1/2, oral 35 mg/m^2 with Compound A, mean): 29.2 h
- concentration at 24 hr (clinical; plasma, 35 mg/m^2, Analyte Concentration, oral 35 mg/m^2, cohort 1, time 24.0 hr, individual subjects): 1.25 ng/mL
- AUC(0-t) (clinical; plasma, 75 mg/m2, AUC0-48, oral 75 mg/m^2 with Compound A, Mean, N=3): 675 ng·h/mL
- AUC(0-inf) (clinical; plasma, 75 mg/m2, AUCINF—obs, oral 75 mg/m^2 with Compound A, Mean, N=3): 815 ng·h/mL
- Cmax (clinical; plasma, 75 mg/m2, Cmax, oral 75 mg/m^2 with Compound A, Mean, N=3): 172 ng/mL
- half-life (clinical; plasma, 75 mg/m2, Reported half-life, oral 75 mg/m^2, individual values, sampling to 168 h, LLOQ 0.2 ng/mL): 51.4 h
- half-life (clinical; plasma, 75 mg/m2, t1/2, oral 75 mg/m^2 with Compound A, Mean, N=3): 53.1 h
- half-life (clinical; plasma, 75 mg/m2, t1/2, oral 75 mg/m^2 with Compound A, individual subjects): 51.4 h
- half-life (clinical; plasma, 75 mg/m2, t1/2, oral 75 mg/m^2 with Compound A, mean): 53.1 h
- concentration at 0.25 hr (clinical; plasma, 75 mg/m^2, Analyte Concentration, oral 75 mg/m^2, cohort 2, time 0.250 hr, individual subjects): 28 ng/mL
- Tmax (clinical; plasma, 150 mg/m2): 2.67 h
- AUC(0-t) (clinical; plasma, 150 mg/m2, AUC0-12, oral 150 mg/m^2 with Compound A, individual subjects): 446 ng·h/mL
- Cmax (clinical; plasma, 150 mg/m2, Cmax, oral 150 mg/m^2 with Compound A, individual subjects): 112 to 136 ng/mL
- half-life (clinical; plasma, 150 mg/m2, Reported half-life, oral 150 mg/m^2, individual values, sampling to 168 h, LLOQ 0.2 ng/mL): 72 h
- half-life (clinical; plasma, 150 mg/m2, t1/2, oral 150 mg/m^2 with Compound A, individual subjects): 72 h
- Tmax (clinical; plasma, 225 mg/m2): 0.5 h
- AUC(0-t) (clinical; plasma, 225 mg/m2, AUC0-24, oral 225 mg/m^2 with Compound A, Mean, N=3): 792 ng·h/mL
- AUC(0-t) (clinical; plasma, 225 mg/m2, AUC0-24, oral 225 mg/m^2 with Compound A, individual subjects): 986 ng·h/mL
- AUC(0-t) (clinical; plasma, 225 mg/m2, AUC0-48, oral 225 mg/m^2 with Compound A, Mean, N=3): 914 ng·h/mL
- AUC(0-inf) (clinical; plasma, 225 mg/m2, AUCINF—obs, oral 225 mg/m^2 with Compound A, Mean, N=3): 1190 ng·h/mL
- half-life (clinical; plasma, 225 mg/m2, t1/2, oral 225 mg/m^2 with Compound A, Mean, N=3): 56 h
- half-life (clinical; plasma, 225 mg/m2, t1/2, oral 225 mg/m^2 with Compound A, individual subjects): 67.3 h
- concentration at 1 hr (clinical; plasma, 225 mg/m^2, Analyte Concentration, oral 225 mg/m^2, cohort 4, time 1.00 hr, individual subjects): 55.6 ng/mL
- concentration at 2 hr (clinical; plasma, 225 mg/m^2, Analyte Concentration, oral 225 mg/m^2, cohort 4, time 2.00 hr, individual subjects): 118 ng/mL
- concentration at 4 hr (clinical; plasma, 225 mg/m^2, Analyte Concentration, oral 225 mg/m^2, cohort 4, time 4.00 hr, individual subjects): 28 ng/mL
